How the values were obtained:
[1] = tested on: mature adipocytes (3T3-L1 cells); assay: Enhancing action on glucose uptake (2-deoxyglucose uptake) into mature adipocytes; format: cell-based; settings: insulin 1 μg/mL positive control, compared to negative control
Method: The induction of differentiation into mature adipocytes was carried out by partially modifying the method of Rubin C. S. et al. 3T3-L1 cells were suspended in a 10% fetal bovine serum-containing Dulbecco's modified Eagle's medium containing 200 μM ascorbic acid so as to have a density of 4×10^3 cells/mL, and the suspension was put in each well of a 12-well microtiter plate in an amount of 2 mL per well. The cells were cultured at 37° C. for 7 days in the presence of 5% carbon dioxide gas. On the seventh day, the medium was exchanged with 2 mL of a 10% fetal bovine serum-containing Dulbecco's modified Eagle's medium containing 200 μM ascorbic acid, 0.25 μM dexamethasone, 10 μg/mL insulin and 0.5 mM 3-isobutyl-1-methylxanthine (manufactured by Nacalai Tesque, Inc., 19624-44). After 45 hours, the medium was exchanged with 2 mL of a 10% fetal bovine serum-containing Dulbecco's modified Eagle's medium containing 200 μM ascorbic acid and 5 μg/mL insulin. The medium was exchanged on after 2 days and 4 days, and the cells were cultured for 7 days, to give mature adipocytes.
As the evaluation of enhancing action on glucose uptake, and also as the evaluation of insulin-mimetic action, the amount of 2-deoxyglucose uptake into mature adipocytes stimulated with the sample ([…]) in the adipocytes was determined.
After the termination of the culture, the medium was removed, and the cells were washed twice with a 0.1% (w/v) bovine serum albumin (manufactured by Sigma, A8022)-containing Dulbecco's modified Eagle's medium. Thereafter, 1 mL of the […] ethanol solution at a final concentration of 0.1%, 0.067%, or 0.022%, […] solution at a final concentration of 0.2%, 0.067%, or 0.022%, […] ethanol solution or the dimethyl sulfoxide solution of the extract from the root portion of Angelica keiskei koidz. with the 100% ethanol so as to have a final concentration of 0.067% or 0.022%, each extract being prepared in Example 4, was put to each well. The cells were cultured overnight at 37° C. in the presence of 5% carbon dioxide gas. Here, a group without addition of the sample was set as a negative control. After the overnight culture, the cells were washed twice with a HEPES buffered saline (140 mM NaCl, 5 mM KCl, 2.5 mM MgSO4, 1 mM CaCl2, 20 mM HEPES-Na (pH 7.4)), and 0.9 mL of the […] ethanol solution at a final concentration of 0.1%, 0.067%, or 0.022%, […] solution at a final concentration of 0.2%, 0.067%, or 0.022%, […] ethanol solution or the dimethyl sulfoxide solution of the extract from the root portion of Angelica keiskei koidz. with the 100% ethanol so as to have a final concentration of 0.067% or 0.022%, was added thereto. The cells were cultured at 37° C. for 75 minutes. At the point when 45 minutes passed, there was set in a well without addition of the sample a group with addition of insulin so as to have a final concentration of 1 μg/mL as a positive control. Thereafter, 100 μL of a HEPES buffered saline containing 0.5 μCi/mL 2-deoxy-[1,2-^3H(N)]-glucose (manufactured by PerkinElmer Life Sciences Inc., NET549A) and 1 mM 2-deoxyglucose (manufactured by Nacalai Tesque, Inc., 10722-11) was added thereto, and the cells were further cultured at 37° C. for 10 minutes. […] The radioactivity was determined with a liquid scintillation counter LS6500 (manufactured by Beckmann) using 25 μl of the supernatant with Ultima Gold (manufactured by PerkinElmer Life Sciences Inc., 6013329) as a scintillation cocktail. […]

[2] = tested on: Preadipocyte cell line 3T3-L1; assay: Induction of differentiation into adipocytes (amount of triglyceride biosynthesis); format: cell-based; settings: for induction of biosynthesis of triglyceride (inducing action on differentiation into mature adipocytes): isolated compounds at final 1-30 μM, seven days after addition
Method: The induction of differentiation into adipocytes was carried out by partially modifying the method of Rubin C. S. et al. (J. Biol. Chem., Vol. 253, No. 20, p7570-7578 (1978)). Preadipocyte cell line 3T3-L1 (ATCC CCL-92.1) was suspended in a 10% fetal bovine serum (manufactured by GIBCO)-containing Dulbecco's modified Eagle's medium (manufactured by Sigma, D6046) containing 200 μM ascorbic acid (hereinafter referred to as A-D-MEM medium) so as to have a density of 4×10^3 cells/mL, and the suspension was put in each well of a 12-well microtiter plate in an amount of 2 mL per well. The cells were cultured at 37° C. for 7 days in the presence of 5% carbon dioxide gas. The medium was exchanged with the same medium on the second day and the fourth day. On the seventh day, the medium was exchanged with A-D-MEM medium containing 0.25 μM dexamethasone. […] Here, there were set a group with addition of 4 μL of a 5 mg/mL aqueous solution of insulin (manufactured by TAKARA BIO INC.) as a positive control, and a group with addition of dimethyl sulfoxide as a negative control. After 45 hours, the medium was exchanged with A-D-MEM medium. […] The cells were cultured for additional 7 days.
The amount of triglyceride in the adipocytes was determined as an index for inducing differentiation into matured adipocytes, and as evaluation of insulin-mimetic action. After the termination of the culture, the medium was removed, and the cells were washed twice with a phosphate buffered saline. One milliliter of a solvent of hexane: isopropanol=3:2 was added thereto. The mixture was allowed to stand at room temperature for 30 minutes, and thereafter the supernatant was collected. The procedures were repeated again, and 2 mL of the resulting supernatant was concentrated to dryness. The precipitate was dissolved in 100 μL of isopropanol, and thereafter the amount of triglyceride contained in 10 μL of the resulting solution was determined with Triglyceride E-Test (manufactured by Wako Pure Chemical Industries, Ltd., code 432-40201). All of the determinations were carried out twice.
Specifically, as a sample, there was set a group with addition of the dimethyl sulfoxide solution of the extract from the root portion of Angelica keiskei koidz. with the 40% aqueous ethanol solution at a final concentration of 0.1% or 0.033%, the dimethyl sulfoxide solution of the extract from the root portion of Angelica keiskei koidz. with the 50% aqueous ethanol solution at a final concentration of 0.033% or 0.011%, the dimethyl sulfoxide solution of the extract from the root portion of Angelica keiskei koidz. with the 70% aqueous ethanol solution at a final concentration of 0.022%, the dimethyl sulfoxide solution of the extract from the root portion of Angelica keiskei koidz. with the 60% or 80% aqueous ethanol solution or the dimethyl sulfoxide solution of the extract with the 100% ethanol so as to have a final concentration of 0.067% or 0.022%, respectively, to each well. Here, there were set a group with addition of 4 μL of a 5 mg/mL aqueous solution of insulin (manufactured by TAKARA BIO INC.) as a positive control, and a group with addition of dimethyl sulfoxide as a negative control. Thereafter, the medium and the sample were exchanged in the same manner as in the method described in Example 5, and after seven days from the addition of the sample, the amount of triglyceride in the adipocytes was determined.
Here, there were set a group with addition of 4 μL of a 5 mg/mL aqueous solution of insulin (manufactured by TAKARA BIO INC.) as a positive control, and a group with addition of dimethyl sulfoxide as a negative control. Thereafter, the medium and the sample were exchanged in the same manner as in the method described in Example 5, and after seven days from the addition of the sample, the amount of triglyceride in the adipocytes was determined.

[3] = biological target: T1, human muscle cell-derived aldose reductase (Homo sapiens, UniProt P15121); assay: Inhibitory action for aldose reductase (change in NADPH absorbance at 340 nm, methylglyoxal substrate); format: biochemical
T1 construct: purchased Wako Pure Chemical Industries, Ltd
Method: Inhibitory action for aldose reductase of the extract from the root portion of Angelica keiskei koidz. was determined in accordance with the following method. As a sample, 20 μL of a 100 mM methylglyoxal solution was added to 10 μL of each of the kinds of ethanol extracts from the root portion of Angelica keiskei koidz. prepared in Example 4, and 10 μL of the water extract from the root portion of Angelica keiskei koidz. prepared in Preparation Example 1 (a solution prepared by dissolving the extract in a 50% aqueous dimethyl sulfoxide solution), 100 μL of 0.2 M phosphate buffer (pH 6.2), 20 μL of 1 mM NADPH (phosphate buffer), and 10 μL of a human muscle cell-derived aldose reductase solution (0.1 U/mL, manufactured by Wako Pure Chemical Industries, Ltd., phosphate buffer). For a period of 180 seconds after 30 seconds passed, the change in absorbance of NADPH at 340 nm was determined. As a negative control, a 50% aqueous dimethyl sulfoxide solution was used in place of the sample. Also, the absorbance was determined using distilled water as a blank solution for each sample in place of the methylglyoxal solution. The determination values were expressed as an average of two experimental values. The inhibitory ratio (%) for aldose reductase was calculated in accordance with the following formula: Inhibitory Ratio (%)=[1−(ΔAs−ΔAsb)/(ΔAc−ΔAcb)]×100, wherein ΔAs and ΔAc show a change in the absorbance of each of the sample solution and the negative control solution per minute; and ΔAsb and ΔAcb show a change in the absorbance of the blank solutions for the sample solution and the negative control solution per minute.
The inhibitory activity for aldose reductase of the extract from the leaf and stem portions of Angelica keiskei koidz. prepared in Example 3 was determined in the same manner as in Example 8.

aldose reductase = aldose reductase (Homo sapiens, UniProt P15121); settings: clarified in WO 2004/031165; cited from earlier work
[4] = isolated compounds at final 3-30 μM

Compound	enhancement of 2-deoxy-[1,2-3H(N)]-glucose uptake [1, 4]	induction of biosynthesis of triglyceride (inducing action on differentiation into mature adipocytes) [2]	Inhibitory Ratio (%) of Aldose Reductase ([3]; 2.5 μM) [%]	Inhibitory Ratio (%) of Aldose Reductase ([3]; 5 μM) [%]	Inhibitory Ratio (%) of Aldose Reductase ([3]; 10 μM) [%]	Inhibitory Ratio (%) of Aldose Reductase ([3]; 20 μM) [%]	inhibitory actions for aldose reductase (aldose reductase)	enhancement of 2-deoxy-[1,2-3H(N)]-glucose uptake ([1]; root extracts (Example 4) at final 0.022-0.2%)	induction of triglyceride biosynthesis (activity of inducing differentiation into adipocytes) ([2]; leaf and stem extracts (Example 3) at final 0.011-0.2%, insulin positive control, compared to dimethyl sulfoxide group)
COc1ccc(C(=O)/C=C/c2ccc(O)cc2)c(O)c1CC=C(C)C [4-hydroxyderricin]	enhancement of 2-deoxy-[1,2-^3H(N)]-glucose uptake was found	induction of biosynthesis of triglyceride was found							
COc1ccc2c(c1CC=C(C)C)O[C@H](c1ccc(O)cc1)CC2=O [Munduleaflavanone A, munduleaflavanone A]		induction of biosynthesis of triglyceride was found	38.5	54.6	68.5	73.8			
CC(C)=CCC/C(C)=C/Cc1c(O)ccc2c1O[C@H](c1ccc(O)cc1)CC2=O [Prostratol F, prostratol F]		induction of biosynthesis of triglyceride was found	27.4	46.3	57.1	61.4			
CC12CCC(O)C(C)(C)C1Cc1c(O)ccc(C(=O)/C=C/c3ccc(O)cc3)c1O2 (centres unmarked) [TB1]		induction of biosynthesis of triglyceride was found					inhibitory actions for aldose reductase are found		
CC(C)=CCCC1(C)Oc2c(C(=O)/C=C/c3ccc(O)cc3)ccc(O)c2CC1O (centres unmarked) [TB2]		induction of biosynthesis of triglyceride was found					inhibitory actions for aldose reductase are found		
bavachromanol			42.1	58.2	70.5	80.1			
insulin: insulin (manufactured by TAKARA BIO INC.), positive control [reference compound]	enhancement of 2-deoxy-[1,2-^3H(N)]-glucose uptake was found							enhancement of 2-deoxy-[1,2-^3H(N)]-glucose uptake was found	induction of triglyceride biosynthesis could be also confirmed
